From paper PMC8698454, “Anti-Colonization Effect of Au Surfaces with Self-Assembled Molecular Monolayers Functionalized with Antimicrobial Peptides on S. epidermidis” (Antibiotics, 2021)
In brackets after ≈: the same amount, converted by molar mass. Read-outs that look alike come from different tables or passages of the source. Where a SMILES comes first, the peptide text is derived from it. [ ]: non-standard residue; d: D form. Lys(N3) = [N-]=[N+]=NCCCC[C@H](N)C(=O)O

What was measured:
[1] = tested on: Gram-positive bacteria; type: cell-based, S. aureus and S. epidermidis
Description: (§1) The minimal inhibitory concentration (MIC) of peptides 1a, 1b, 2a, and 2b were determined by broth microdilution according to the Clinical Laboratory Standard Institute (CLSI) method […]-A9. The MICs of the peptides 1c, 1d, 2c, and 2d were determined by broth dilution according to the European Committee for Antimicrobial Susceptibility Testing (EUCAST). Final concentrations of 0.5-256 μg/mL were tested against a panel of reference bacteria-S. aureus (ATCC 9144), S. epidermidis (1457), E. coli (ATCC 25922), and P. aeruginosa (ATCC 27853). Each strain was tested in biological triplicate. The MIC values were defined as the lowest concentration of the peptides resulting in no visual growth.

[2] = tested on: Escherichia coli ATCC 25922; type: cell-based; details: for MIC E. coli ATCC 25922: Table S3
Description: as §1

[3] = tested on: Staphylococcus epidermidis 1457; type: cell-based; details: for MIC S. epidermidis 1457: Table S3
Description: as §1

[4] = tested on: Pseudomonas aeruginosa ATCC 27853; type: cell-based; details: for MIC P. aeruginosa ATCC 27853: Table S3
Description: as §1

[5] = tested on: Staphylococcus aureus ATCC 9144; type: cell-based; details: for MIC S. aureus ATCC 9144: Table S3
Description: as §1

[6] = tested on: Gram-negative bacteria; type: cell-based, E. coli and P. aeruginosa
Description: as §1

[7] = technical replicate 1, biological replicate BR1
[8] = technical replicate 1, biological replicate BR2
[9] = technical replicate 1, biological replicate BR3
[10] = technical replicate 2, biological replicate BR1
[11] = technical replicate 2, biological replicate BR2
[12] = technical replicate 2, biological replicate BR3
[13] = technical replicate 3, biological replicate BR1
[14] = technical replicate 3, biological replicate BR2
[15] = technical replicate 3, biological replicate BR3

Compound: [N-]=[N+]=NCCCC[C@H](NC(=O)[C@H](Cc1ccccc1)NC(=O)[C@H](CCCNC(=N)N)NC(=O)[C@H](Cc1c[nH]c2ccccc12)NC(=O)[C@H](Cc1c[nH]c2ccccc12)NC(=O)[C@@H](N)CCCNC(=N)N)C(N)=O [1c] (H-RWWRF[Lys(N3)]-NH2)
- MIC against Gram-positive bacteria [1]: 16 to 32 µg/mL
- Antimicrobial Activity (MIC) E. coli ([2]; ATCC 25922): 64 µg/mL
- MIC E. coli ATCC 25922 [2, 7]: 32 µg/mL (≈ 31.9 µM)
- MIC E. coli ATCC 25922 [2, 8]: 64 µg/mL (≈ 63.8 µM)
- MIC E. coli ATCC 25922 [2, 9]: 32 µg/mL (≈ 31.9 µM)
- MIC E. coli ATCC 25922 [2, 10]: 64 µg/mL (≈ 63.8 µM)
- MIC E. coli ATCC 25922 [2, 11]: 64 µg/mL (≈ 63.8 µM)
- MIC E. coli ATCC 25922 [2, 12]: 32 µg/mL (≈ 31.9 µM)
- MIC E. coli ATCC 25922 [2, 13]: 64 µg/mL (≈ 63.8 µM)
- MIC E. coli ATCC 25922 [2, 14]: 64 µg/mL (≈ 63.8 µM)
- MIC E. coli ATCC 25922 [2, 15]: 32 µg/mL (≈ 31.9 µM)
- Antimicrobial Activity (MIC) S. epidermidis [3]; 1457: 16 µg/mL
- MIC S. epidermidis 1457 [3, 7]: 16 µg/mL (≈ 15.9 µM)
- MIC S. epidermidis 1457 [3, 8]: 16 µg/mL (≈ 15.9 µM)
- MIC S. epidermidis 1457 [3, 9]: 16 µg/mL (≈ 15.9 µM)
- MIC S. epidermidis 1457 [3, 10]: 16 µg/mL (≈ 15.9 µM)
- MIC S. epidermidis 1457 [3, 11]: 16 µg/mL (≈ 15.9 µM)
- MIC S. epidermidis 1457 [3, 12]: 16 µg/mL (≈ 15.9 µM)
- MIC S. epidermidis 1457 [3, 13]: 16 µg/mL (≈ 15.9 µM)
- MIC S. epidermidis 1457 [3, 14]: 16 µg/mL (≈ 15.9 µM)
- MIC S. epidermidis 1457 [3, 15]: 16 µg/mL (≈ 15.9 µM)
- Antimicrobial Activity (MIC) P. aeruginosa ([4]; ATCC 27853): 64 µg/mL
- MIC P. aeruginosa ATCC 27853 [4, 7]: 64 µg/mL (≈ 63.8 µM)
- MIC P. aeruginosa ATCC 27853 [4, 8]: 64 µg/mL (≈ 63.8 µM)
- MIC P. aeruginosa ATCC 27853 [4, 9]: 32 µg/mL (≈ 31.9 µM)
- MIC P. aeruginosa ATCC 27853 [4, 10]: 64 µg/mL (≈ 63.8 µM)
- MIC P. aeruginosa ATCC 27853 [4, 11]: 64 µg/mL (≈ 63.8 µM)
- MIC P. aeruginosa ATCC 27853 [4, 12]: 32 µg/mL (≈ 31.9 µM)
- MIC P. aeruginosa ATCC 27853 [4, 13]: 64 µg/mL (≈ 63.8 µM)
- MIC P. aeruginosa ATCC 27853 [4, 14]: 64 µg/mL (≈ 63.8 µM)
- MIC P. aeruginosa ATCC 27853 [4, 15]: 32 µg/mL (≈ 31.9 µM)
- Antimicrobial Activity (MIC) S. aureus ([5]; ATCC 9144): 32 µg/mL
- MIC S. aureus ATCC 9144 [5, 7]: 32 µg/mL (≈ 31.9 µM)
- MIC S. aureus ATCC 9144 [5, 8]: 32 µg/mL (≈ 31.9 µM)
- MIC S. aureus ATCC 9144 [5, 9]: 32 µg/mL (≈ 31.9 µM)
- MIC S. aureus ATCC 9144 [5, 10]: 32 µg/mL (≈ 31.9 µM)
- MIC S. aureus ATCC 9144 [5, 11]: 32 µg/mL (≈ 31.9 µM)
- MIC S. aureus ATCC 9144 [5, 12]: 32 µg/mL (≈ 31.9 µM)
- MIC S. aureus ATCC 9144 [5, 13]: 32 µg/mL (≈ 31.9 µM)
- MIC S. aureus ATCC 9144 [5, 14]: 32 µg/mL (≈ 31.9 µM)
- MIC S. aureus ATCC 9144 [5, 15]: 32 µg/mL (≈ 31.9 µM)
- MIC against Gram-negative bacteria [6]: 64 µg/mL (≈ 63.8 µM)
